Values quoted from earlier work in patent EP0604852A1, “2,4-Substituted 5-(N-substituted-sulfamoyl) benzoylguanidines, as antiarrhythmic agents, inhibitors of the proliferation of cells and inhibitors of sodium-hydrogen exchange” (HOECHST AKTIENGESELLSCHAFT, priority 1992, dated 1994).

Tested on: Rattenherzen
Conditions: isolated rat hearts; Eur. Heart J. 9 (Suppl.): 167 (1988)

Compound | künstlich ausgelöstes Kammerflimmern
N=C(N)NC(=O)c1nc(Cl)c(N)nc1N [Amilorid] | völlig unterdrückt
CCN(c1nc(N)c(C(=O)NC(=N)N)nc1Cl)C(C)C [Ethylisopropylamilorid] | Noch potenter als Amilorid
